Data as given in the NIST ThermoML archive (doi:10.1021/je050333h).
Numbers after ± are expanded uncertainties.

Legend:
[1] = 101 kPa, Liquid; for speed of sound: Sing-around technique in a fixed-path interferometer
[2] = cn = amount concentration of the nth substance listed, in mol/dm3; settings: 101 kPa, Liquid, c2 = 0; for speed of sound: Sing-around technique in a fixed-path interferometer

CC(C)CC(C)(C)C [2,2,4-trimethylpentane]
[1]
Settings	kinematic viscosity [m2/s]	mass density [kg/m3]	speed of sound [m/s]
293.15 K	7.33e-07 ± 1.3e-08	690.6 ± 6.3	1103.2 ± 1.3
298.15 K	6.97e-07 ± 1.2e-08	686.3 ± 6.4	1082.2 ± 1.3
303.15 K	6.63e-07 ± 1.2e-08	680.84 ± 6.5	1061.3 ± 1.3
313.15 K	6.02e-07 ± 1.1e-08	673.37 ± 6.6	1020.1 ± 1.3
323.15 K	5.49e-07 ± 1e-08	664.65 ± 6.7	979.5 ± 1.3

CC(C)CC(C)(C)C [2,2,4-trimethylpentane] + CCCCC(CC)COC(=O)CC(C(=O)OCC(CC)CCCC)S(=O)(=O)[O-].[Na+]
[2]
Settings	kinematic viscosity [m2/s]	mass density [kg/m3]	speed of sound [m/s]
293.15 K	7.33e-07 ± 1.3e-08	690.6 ± 6.3	1103.2 ± 1.3
298.15 K	6.97e-07 ± 1.2e-08	686.3 ± 6.4	1082.2 ± 1.3
303.15 K	6.63e-07 ± 1.2e-08	680.84 ± 6.5	1061.3 ± 1.3
313.15 K	6.02e-07 ± 1.1e-08	673.37 ± 6.6	1020.1 ± 1.3
323.15 K	5.49e-07 ± 1e-08	664.65 ± 6.7	979.5 ± 1.3
